Test results: US11278549B2, “Method of treating obesity” (McMaster University, priority 2013, dated 2022)
Where a name gives a salt, the structure may show the parent alone.

Tests used:
HFD-fed C57Bl6 mice [1] = test: Daily LP533401 treatment of HFD-fed C57Bl6 mice (prevention of obesity); assay type: in vivo
Excerpt: Animals. All experiments were approved by the McMaster University animal ethics committee and conducted under the Canadian guidelines for animal research. Tph1^−/− mice on C57BL/6 background were originally produced by gene mutation as described by Côté et al. (Proc Natl Acad Sci USA 100, 13525-13530 (2003)). Heterozygous (Tph1^+/−) mice were interbred to generate Tph1^−/− and Tph1^+/+ littermates. Starting at 8 weeks of age, male Tph1^−/− and Tph1^+/+ mice received either a chow (17% kcal fat; Diet 8640, Harlan Teklad, Madison, Wis.) or high-fat diet (HFD, 45% kcal fat, D12451, Research Diets; New Brunswick, N.J.) and water ad libitum for 12 weeks. For the initial chemical inhibitor studies, male C57BL/6 mice were purchased from Jackson's Laboratory at 6 weeks of age and immediately placed on the HFD described above. Starting at 8 weeks of age HFD-fed C57Bl6 mice received a daily intraperitoneal injection of the Tph1 inhibitor, LP533401 (25 mg/kg body weight, Dalton Pharma Services, Canada) dissolved in DMSO and diluted with water (5% DMSO final concentration) or equal volume of vehicle (5% DMSO in water). […] All mice were housed in SPF micro-isolator cages that were located in a room maintained at a constant temperature of 23° C. on a 12 h light/dark cycle with lights on at 0700.
(§1) Metabolic monitoring was performed in a Comprehensive Lab Animal Monitoring System (CLAMS, Columbus Instruments, OH, USA) as previously described (Sachithanandan, N., et al. Hepatology 52, 1632-1642 (2010); O'Neill, H. M., et al. Proc Natl Acad Sci 108, 16092-16097 (2011)). CL-316,243 challenge experiments were also performed using the CLAMS equipment, as described. All metabolic monitoring occurred in a room kept between 26 and 28° C. Insulin and glucose tolerance tests were performed after 16 weeks of the diet intervention in Tph1^−/− mice experiments, and after 6-10 weeks of HFD weeks in LP533401 injection experiments as previously described (Steinberg, G. R., et al. J Biol Chem 285, 37198-37209 (2010)). For serum insulin and cytokine measurements, fasting and fed blood samples were collected by retro-orbital bleed between weeks 16-18 using a non-heparinized capillary tube and insulin, adiponectin, leptin were measured as described (Watt, M. J., et al. Nature medicine 12, 541-548 (2006)). Serum cytokines (MCP-1, TNFα, and IL-6) were measured using a multiplexed bead-based immunoassay (BD Biosciences, San Jose, Calif., USA) following the manufacturer's instructions.
In vivo glucose uptake and body composition: ^18F-Fluorodeoxyglucose (FDG) was synthesized at McMaster University by the nucleophilic substitution method using an FDG synthesizing instrument (GE Healthcare, Milwaukee, Wis., USA) and a cyclotron (Siemans 20-30 gb). After an 8 h fast, mice were injected with insulin (0.5 U/kg) diluted in 0.9% physiological saline and 5 minutes later received an intravenous administration of FDG (10.8±1.2 MBq/g). After injection, the mice were maintained under conscious conditions and warmed using a heating pad. At 28 minutes post saline or insulin injection mice were anaesthetized with isoflorane and at 30 minutes small-animal positron emission tomography (PET, Philip Mosaic, Andover, Mass.) and micro-computed tomography (CT) (Gamma Medica-Ideas Xspect System, NorthRidge, Calif.) imaging were performed using an acquisition time of 15 min for PET, followed by CT for 5 minutes. Images were reconstructed using 3D-RAMLA algorithm, with no attenuation correction and no correction for partial-volume effects of the tomograph as previously described^31. Quantification was performed by Region-of-interest (ROI) analysis using Amide Research Workplace software and FDG-tissue uptake calculated using the mean value of standard uptake values (SUV) as described (Palanivel R, Diabetologia. 55(11):3083-93 (2012)). […]

HFD-fed C57Bl6 mice [2] = test: Metabolic cages and 18FDG-PET/CT of LP533401-treated HFD-fed mice; assay type: in vivo
Experimental: as §1
In vivo glucose uptake and body composition: ^18F-Fluorodeoxyglucose (FDG) was synthesized at McMaster University by the nucleophilic substitution method using an FDG synthesizing instrument (GE Healthcare, Milwaukee, Wis., USA) and a cyclotron (Siemans 20-30 gb). After an 8 h fast, mice were injected with insulin (0.5 U/kg) diluted in 0.9% physiological saline and 5 minutes later received an intravenous administration of FDG (10.8±1.2 MBq/g). After injection, the mice were maintained under conscious conditions and warmed using a heating pad. At 28 minutes post saline or insulin injection mice were anaesthetized with isoflorane and at 30 minutes small-animal positron emission tomography (PET, Philip Mosaic, Andover, Mass.) and micro-computed tomography (CT) (Gamma Medica-Ideas Xspect System, NorthRidge, Calif.) imaging were performed using an acquisition time of 15 min for PET, followed by CT for 5 minutes. Images were reconstructed using 3D-RAMLA algorithm, with no attenuation correction and no correction for partial-volume effects of the tomograph as previously described^31. Quantification was performed by Region-of-interest (ROI) analysis using Amide Research Workplace software and FDG-tissue uptake calculated using the mean value of standard uptake values (SUV) as described (Palanivel R, Diabetologia. 55(11):3083-93 (2012)). Analysis of total body fat composition were determined by using Amira software (Visage Imaging) and the mean value of voxels of segmented adipose were calculated and expressed relative to total body mass.
To examine the mechanisms contributing to weight loss in LP533401-treated mice, HFD-fed mice were placed in metabolic cages after 12 days of treatment before any change in body mass was evident in groups (Vehicle: 29.4±0.58 g vs. LP533401:28.9±0.63 g).

[3] = system: HFD-fed Ucp1+/+ and Ucp1-/- mice; test: LP533401 in HFD-fed Ucp1+/+ and Ucp1-/- mice at thermoneutrality; assay type: in vivo
Experimental: Ucp1 heterozygous mice were acquired from Jackson Laboratories and bred to produce UCP1-null (Ucp1^−/−) and wild-type (Ucp1^+/+) littermates. In order to prevent thermal stress, mice in this colony were bred and housed in a room maintained at 30° C. All testing except for the CL-316,243 challenge occurred at this temperature.
as §1
In order to establish whether the clinical benefits of Tph1 inhibition (weight loss and improvements in insulin sensitivity) are derived from increased thermogenesis mediated by UCP1, daily injections of LP533401 were performed using UCP1-null (Ucp1^−/−) and wild-type littermates (Ucp1^+/+) fed a HFD and housed under thermoneutral conditions (30° C.). […] Thus, the clinical benefits of Tph1 inhibition require UCP1 mediated thermogenesis.

5-HT2A = target: T1, 5-HT2A (Mus musculus, UniProt P35363); test: Fluo-4 Ca2+ signals in brown adipocytes; assay type: cell-based; conditions: for Ca2+ levels: brown adipocytes stained with Fluo-4, agonist treatment; for 5-HT induced Ca2+ transients: pre-treatment with antagonist
T1 construct: endogenous in cells; host or cells: immortalized murine brown adipocytes (differentiated)
T1 sequence (P35363 whole entry): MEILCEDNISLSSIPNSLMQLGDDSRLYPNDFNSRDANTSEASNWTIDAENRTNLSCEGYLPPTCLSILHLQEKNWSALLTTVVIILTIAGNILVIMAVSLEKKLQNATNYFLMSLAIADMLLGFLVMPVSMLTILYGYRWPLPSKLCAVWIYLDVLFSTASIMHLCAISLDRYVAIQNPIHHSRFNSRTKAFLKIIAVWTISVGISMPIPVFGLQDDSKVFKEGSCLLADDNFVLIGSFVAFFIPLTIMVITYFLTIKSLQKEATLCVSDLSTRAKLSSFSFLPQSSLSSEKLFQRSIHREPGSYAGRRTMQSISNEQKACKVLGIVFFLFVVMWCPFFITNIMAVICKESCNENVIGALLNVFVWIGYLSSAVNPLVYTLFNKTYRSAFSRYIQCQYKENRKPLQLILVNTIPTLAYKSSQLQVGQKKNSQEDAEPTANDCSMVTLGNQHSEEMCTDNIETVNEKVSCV
Excerpt: Immortalized BA progenitor cells obtained from 5-HT2A KO (B6; 129-5-HT2Atm1a/Nju from Nanjing Biomedical Research Institute of Nanjing University) mice were differentiated for 9 days to produce mature BAs. Cells were then stained with fluo-4 and treated with different concentrations of 5-HT to obtain a dose response curve. Values from BAs expressing 5-HT2A used for other experiments were plotted as a WT comparison.

UCP1 = test: Ucp1 promoter activity, Ucp1 mRNA and UCP1 protein in brown adipocytes; assay type: cell-based, mouse
Experimental: Using RNA-Seq, cultured human brown and beige adipocytes were interrogated for 5-HT receptor mRNA expression. Immortalized murine brown adipocytes (BAs) were treated with or without the selective 5-HT reuptake inhibitor (SSRI), paroxetine (250 nM). Subsequent studies were conducted with and without 5-HT2A agonists (1 pM-10 uM TCB-2, 1 pM-10 uM AL-34662, and 1 pM-10 uM NBOH-2C-CN) and 5-HT2A antagonists (100 fM-100 pM MDL-100907, 100 pM-10 uM xylamidine tosylate, 1 nM ketanserin, 10 nM altanserin, 100 fM-100 pM EMD-281,014, and 100 pM-10 uM sarpogrelate hydrochloride).
BA progenitors were isolated and immortalized from WT and serotonin transporter (SERT; Gene: Slc6a4) KO mice. These cells were then differentiated for 7 days to obtain mature BAs. BAs were then treated with different doses of 5-HT for 4 hours. RNA was isolated and quantified using RT-qPCR with probes specific for Slc6a4, Ucp1 and PPIA.
BA progenitors were isolated from mice expressing a transgene where the luciferase gene is driven by the Ucp1 promoter (i.e. Ucp1-Luc2 mice; a.k.a. ThermoMouse; Jackson Laboratories). Upon 9 days of differentiation, these BAs were treated for 4 hours with different doses of 5-HT. Because in vitro there is not a continuous supply of 5-HT as there is in vivo, cells were treated with paroxetine to inhibit the uptake and consequent degradation of 5-HT, and to observe 5-HT receptor specific effects. These cells were then lysed, incubated with a luciferin assay cocktail, and the light generated quantified on a microplate reader.

5-HT receptor = test: Isoproterenol-induced lipolysis (FFA release) in immortalized BAT cells; assay type: cell-based, mouse; conditions: co-treatment with the antagonist (3 μM), n=2
Experimental: Briefly, confluent cells were placed in induction media (0.5 mM IBMX; 0.25 mM indomethacin; 2 μg/ml dexamethasone; 1 nM T3, 20 nM insulin) for two days and subsequently maintained on differentiation media (1 nM T3, 20 nM insulin). All experiments were performed on cultures 6-8 days post-induction. Unless otherwise indicated, cells were rinsed with PBS and media was changed to HEPES-buffered Krebs Ringer buffer (HKRB)+1% BSA. Where indicated, BAs were treated with serotonin for 30 min (100 μM; Sigma) followed by isoproterenol (1 nM, Sigma) for 4 h. The serotonin receptor antagonist, methysergide (3 μM) was used 45 min prior treatment with serotonin as above.

[4] = HFD-fed C57Bl6 mice, Tph1 inhibitor 25 mg/kg daily i.p., values ± SEM, n = 7-8

Nc1nc(OC(c2ccc(-c3cccc(F)c3)cc2)C(F)(F)F)cc(-c2ccc(C[C@H](N)C(=O)O)cc2)n1 (stereo partly drawn) [LP533401, (2S)-2-amino-3-(4-(2-amino-6-(2,2,2-trifluoro-1-(3′-fluoro-[1,1′-biphenyl]-4-yl)ethoxy)pyrimidin-4-yl)phenyl)propanoic acid]
accumulation of body fat (HFD-fed C57Bl6 mice [1]; 25 mg/kg i.p., versus vehicle): lower accumulation | circulating serotonin levels (HFD-fed C57Bl6 mice [1]; 25 mg/kg i.p., versus vehicle): reduced | glucose homeostasis (HFD-fed C57Bl6 mice [1]; 25 mg/kg i.p., versus vehicle): improvements | insulin sensitivity (HFD-fed C57Bl6 mice [1]; 25 mg/kg i.p., versus vehicle): increased | liver size (HFD-fed C57Bl6 mice [1]; 25 mg/kg i.p., versus vehicle): reductions | weight gain (HFD-fed C57Bl6 mice [1]; 25 mg/kg i.p., versus vehicle (1-2 grams per week)): suppressed | Tissue weight, Brown Adipose Tissue (HFD-fed C57Bl6 mice [1]; [4]): 153 ± 8.4 mg | Tissue weight, Epididymal Fat Pad (HFD-fed C57Bl6 mice [1]; [4]): 1157 ± 121 mg | Tissue weight, Inguinal Fat Pad (HFD-fed C57Bl6 mice [1]; [4]): 117 ± 16 mg | Tissue weight, Retroperitoneal Fat Pad (HFD-fed C57Bl6 mice [1]; [4]): 265 ± 29.9 mg | FDG uptake in BAT (HFD-fed C57Bl6 mice [2]; 18FDG-PET/CT): increased | FDG uptake into eWAT (HFD-fed C57Bl6 mice [2]; PET, HFD-fed C57Bl6 mice): increased | body mass (HFD-fed C57Bl6 mice [2]; after 12 days of treatment, before any change in body mass): 28.9 ± 0.63 g | oxygen consumption (HFD-fed C57Bl6 mice [2]; dark and light cycles, after 12 days of treatment): increased | browning of eWAT (HFD-fed C57Bl6 mice [2]; macroscopically evident, with marked UCP1 immunostaining): Increased | food intake (HFD-fed C57Bl6 mice [2]; metabolic cages, P>0.05 vs vehicle, n=8): 13.7 ± 0.45 g | activity levels (HFD-fed C57Bl6 mice [2]; metabolic cages, after 12 days of treatment): without altering | expression of UCP1 in BAT (HFD-fed C57Bl6 mice [2]; mouse, in vivo): enhanced | weight gain ([3]; Ucp1+/+ mice, HFD, 30° C.): attenuated weight gain | improvements in glucose tolerance ([3]; Ucp1+/+ versus Ucp1-/- mice): entirely dependent on the expression of UCP1 | oxygen uptake and thermogenesis ([3]; challenged with CL-316,243, only Ucp1+/+ mice): increase

COc1cc(CCNCc2ccccc2O)c(OC)cc1C#N [NBOH-2C-CN]
Ca2+ levels (5-HT2A): increased | Ucp1 mRNA (UCP1; brown adipocytes): inhibited | UCP1 protein levels (UCP1; brown adipocytes, chronic treatment for NBOH-2C-CN): decreased

C[C@H](N)Cn1ncc2ccc(O)cc21 [AL-34662]
Ca2+ levels (5-HT2A): increased

COc1cc(Br)c(OC)c2c1[C@H](CN)C2 [TCB-2]
Ca2+ levels (5-HT2A): increased

COc1cccc(CCc2ccccc2OCC(CN(C)C)OC(=O)CCC(=O)O)c1 (centres unmarked) [Sarpogrelate hydrochloride]
5-HT induced Ca2+ transients (5-HT2A): attenuated

N#Cc1c[nH]c2c(C(=O)N3CCN(CCc4ccc(F)cc4)CC3)cccc12 [EMD-281,014, pruvanserin]
5-HT induced Ca2+ transients (5-HT2A): attenuated

CC[C@@H](CO)NC(=O)[C@@H]1C=C2c3cccc4c3c(cn4C)C[C@H]2N(C)C1 [methysergide]
effect of serotonin on isoproterenol-induced lipolysis (5-HT receptor): blocked

Fc1ccc([C@@H]2CCNC[C@H]2COc2ccc3c(c2)OCO3)cc1 [paroxetine]
sensitivity of brown adipocytes to inhibition by 5-HT (UCP1; serotonin transporter inhibited with the SSRI): greater sensitivity

COc1cccc([C@H](O)C2CCN(CCc3ccc(F)cc3)CC2)c1OC [MDL-100907, volinanserin]
5-HT induced Ca2+ transients (5-HT2A): attenuated | 5-HT induced decrease in UCP1 protein levels (UCP1; antagonist plus 5-HT): dose-dependently attenuated
